Molecules are shown by their SMILES.

The term IC50 denotes the midpoint of a concentration-inhibition curve. The term inhibition denotes the percentage by which the read-out fell short of the control.

Assay [1] has as its target T1, Adenosinetriphosphatase (Gallus gallus, UniProt Q9I8A2). Kind of assay: Compound was tested for in vitro inhibition of osteoclast vacuolar acid pump. It is filed as functional.
Assay [2] has as its target T1, Adenosinetriphosphatase. Nature of the assay: Compound was tested for inhibition of osteoclast vacuolar ATPase derived from chicken medullary bone.
Assay [3] is described as follows: Compound was tested at 9 uM for inhibition of V-ATPase mediated proton transport in membrane vesicles derived from chicken medullary bone.

T1 sequence (Q9I8A2 whole entry): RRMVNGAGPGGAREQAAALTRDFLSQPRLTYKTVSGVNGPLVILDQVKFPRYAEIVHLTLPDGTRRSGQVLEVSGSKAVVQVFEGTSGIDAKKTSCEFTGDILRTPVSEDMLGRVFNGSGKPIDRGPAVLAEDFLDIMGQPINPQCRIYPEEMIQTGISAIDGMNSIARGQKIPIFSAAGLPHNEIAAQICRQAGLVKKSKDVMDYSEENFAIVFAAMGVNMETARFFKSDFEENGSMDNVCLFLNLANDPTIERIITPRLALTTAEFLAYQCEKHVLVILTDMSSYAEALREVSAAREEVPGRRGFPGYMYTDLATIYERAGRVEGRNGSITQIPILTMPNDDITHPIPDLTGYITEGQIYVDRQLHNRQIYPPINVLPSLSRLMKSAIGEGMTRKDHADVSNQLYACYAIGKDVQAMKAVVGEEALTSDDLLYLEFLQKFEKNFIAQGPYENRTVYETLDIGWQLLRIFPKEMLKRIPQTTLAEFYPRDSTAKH

For the compound `CC1(C)CC(NC(=O)c2cccc(CC(=O)Nc3ccc(Cl)c(Cl)c3)c2)CC(C)(C)N1`, the concentration for half-maximal inhibition (IC50) on Adenosinetriphosphatase [1] came out at 4.9 µM. On to `CO/C1=C\C(C)=C\[C@@H](C)[C@@H](O)[C@@H](C)C/C(C)=C/C=C/[C@H](OC)[C@@H]([C@@H](C)[C@@H](O)[C@H](C)[C@@]2(O)C[C@@H](O)[C@H](C)[C@@H](C(C)C)O2)OC1=O` [BAFILOMYCIN A1], for which, at Adenosinetriphosphatase [2], half-maximal inhibition (IC50) was put at 0.03 µM. On the same count and under the same terms, then `CO/C(=C\C=C\c1cc2cc(Cl)c(Cl)cc2[nH]1)C(=O)NC1CC(C)(C)NC(C)(C)C1`, with 0.049 µM. As for `CC1(C)CC(NC(=O)/C=C/C=C/C(=O)Nc2ccc(Cl)c(Cl)c2)CC(C)(C)N1`, the inhibition in assay [3] was 51%. Besides, on Adenosinetriphosphatase [1], the IC50 came out at 1.5 µM.

The record behind these values is ChEMBL document CHEMBL1133416, “Solid phase synthesis of diamides as potential bone resorption inhibitors” (Bioorg Med Chem Lett, 2000).
